IC50 data for four compounds are collected here from ChEMBL document CHEMBL1140050, “Designed glycopeptides with different beta-turn types as synthetic probes for the detection of autoantibodies as biomarkers of multiple sclerosis” (J Med Chem, 2008).

Residues, ends and D or L forms follow the SMILES beside them. *: point of attachment. NH(β-D-Glc) = OC[C@H]1O[C@@H](N*)[C@H](O)[C@@H](O)[C@@H]1O

The assay is described as follows: Binding affinity to anti-CSF114 (Glc) antibody in serum from multiple sclerosis patient by ELISA. For orientation: ELISA stands for enzyme-linked immunosorbent assay.
Turning to `CSCC[C@H](NC(=O)[C@H](Cc1c[nH]c2ccccc12)NC(=O)CNC(=O)[C@H](Cc1ccc(O)cc1)NC(=O)[C@@H]1CCCN1C(=O)[C@H](C)NC(=O)[C@H](CC(C)C)NC(=O)[C@H](Cc1ccccc1)NC(=O)[C@@H](NC(=O)[C@H](CO)NC(=O)[C@H](Cc1cnc[nH]1)NC(=O)CNC(=O)[C@H](CC(=O)N[C@@H]1O[C@H](CO)[C@@H](O)[C@H](O)[C@H]1O)NC(=O)[C@H](CCCNC(=N)N)NC(=O)[C@H](CCC(=O)O)NC(=O)[C@@H](NC(=O)[C@H](CCCNC(=N)N)NC(=O)[C@@H]1CCCN1C(=O)[C@@H](N)[C@@H](C)O)C(C)C)C(C)C)C(=O)N[C@H](C(=O)N[C@@H](CCCCN)C(=O)O)C(C)C`, the IC50 (as a rule, the concentration that inhibits the measured activity by half) worked out at 137 nM.
In the case of `CC(=O)N[C@@H](CCC(=O)O)C(=O)N[C@@H](CCCNC(=N)N)C(=O)N1CCC[C@H]1C(=O)N[C@@H](CC(=O)N[C@@H]1O[C@H](CO)[C@@H](O)[C@H](O)[C@H]1O)C(=O)N[C@@H](Cc1cnc[nH]1)C(=O)N[C@H](C(=O)N[C@H](C(N)=O)C(C)C)[C@@H](C)O` (Ac-ERPD(NH(β-D-Glc))HTV-NH2), the concentration for half-maximal inhibition (IC50) is 14.9 nM.
Compound `CSCC[C@H](NC(=O)[C@H](Cc1c[nH]c2ccccc12)NC(=O)CNC(=O)[C@H](Cc1ccc(O)cc1)NC(=O)[C@@H]1CCCN1C(=O)[C@H](C)NC(=O)[C@H](CC(C)C)NC(=O)[C@H](Cc1ccccc1)NC(=O)[C@@H](NC(=O)[C@@H](NC(=O)[C@H](Cc1cnc[nH]1)NC(=O)[C@H](CC(=O)N[C@@H]1O[C@H](CO)[C@@H](O)[C@H](O)[C@H]1O)NC(=O)CNC(=O)[C@H](CCCNC(=N)N)NC(=O)[C@H](CCC(=O)O)NC(=O)[C@@H](NC(=O)[C@H](CCCNC(=N)N)NC(=O)[C@@H]1CCCN1C(=O)[C@@H](N)[C@@H](C)O)C(C)C)[C@@H](C)O)C(C)C)C(=O)N[C@H](C(=O)N[C@@H](CCCCN)C(=O)O)C(C)C` (H-TPRVERGD(NH(β-D-Glc))HTVFLAPYGWMVK-OH) gave an IC50 of 30.3 nM.
`CSCC[C@H](NC(=O)[C@H](Cc1c[nH]c2ccccc12)NC(=O)CNC(=O)[C@H](Cc1ccc(O)cc1)NC(=O)[C@@H]1CCCN1C(=O)[C@H](C)NC(=O)[C@H](CC(C)C)NC(=O)[C@H](Cc1ccccc1)NC(=O)[C@@H](NC(=O)[C@@H](NC(=O)[C@H](Cc1cnc[nH]1)NC(=O)[C@H](CC(=O)N[C@@H]1O[C@H](CO)[C@@H](O)[C@H](O)[C@H]1O)NC(=O)[C@@H]1CCCN1C(=O)[C@H](CCCNC(=N)N)NC(=O)[C@H](CCC(=O)O)NC(=O)[C@@H](NC(=O)[C@H](CCCNC(=N)N)NC(=O)[C@@H]1CCCN1C(=O)[C@@H](N)[C@@H](C)O)C(C)C)[C@@H](C)O)C(C)C)C(=O)N[C@H](C(=O)N[C@@H](CCCCN)C(=O)O)C(C)C` (H-TPRVERPD(NH(β-D-Glc))HTVFLAPYGWMVK-OH) gave an IC50 of 11.8 nM.
